Measured values from article PMC11089506 (Journal of Medicinal Chemistry, 2024).
pEC50, pIC50, pKi: −log10 of the molar value. Where two headings read alike, the source gives them in different places.

Experiments:
MDR1 = test: MDR1-MDCK II permeability assay; format: in vitro ADME; settings: dog, MDCK-MDR1, pH 7.4, Table S6
MDR1 (P-gp) = test: MDR1-MDCK II permeability assay; format: in vitro ADME; settings: dog, MDCK-MDR1, pH 7.4
MDR1-MDCKII = test: MDR1-MDCK II permeability assay; format: in vitro ADME; settings: Table S6
human 5-HT2CR [1] = target: T1, human 5-HT2CR (Homo sapiens, UniProt P28335); test: Ca2+/Fluo-4 assay, agonist mode, stable 5-HT2CR-HEK293 cells; settings: for EC50: 5-HT2CR EC50 (nM); for EC50 / pEC50: at least 3 independent experiments; for pEC50: read-out: 5-HT2CR EC50
human 5-HT2AR = human 5-HT2AR (Homo sapiens, UniProt P28223); test: Ca2+/Fluo-4 assay, agonist mode, stable 5-HT2AR-HEK293 cells; settings: for 5-HT2AR pEC50 ± S.E.M. / 5-HT2AR Rmax ± S.E.M.: Table S2; for pEC50: read-out: 5-HT2AR EC50; for pEC50 / EC50: at least 3 independent experiments; for EC50: 5-HT2AR EC50 (nM); for 5-HT2AR Rmax (%): % of the 5-HT Rmax; for 5-HT2AR Rmax ± S.E.M.: % of the 5-HT Rmax on the same 96-well plate
human 5-HT2CR [2] = target: T1, human 5-HT2CR; test: Ca2+/Fluo-4 assay, antagonist mode (5-HT EC90 as agonist), stable 5-HT2CR-HEK293 cells
human 5-HT2BR = target: T2, human 5-HT2BR (Homo sapiens, UniProt P41595); test: [125I]DOI competition binding assay
T2 construct: host or cells: HEK293 (membrane homogenates)
Procedure: (§1) Following incubation, the samples were filtered rapidly under vacuum through glass fiber filters (GF/B, Packard) presoaked with 0.3% polyethylenimine and rinsed several times with ice cold wash buffer (50 mM Tris-HCl, pH 7.4) using a 96-sample cell harvester (Unifilter, Packard). The filters were dried and then counted for radioactivity in a scintillation counter (Topcounter, Packard) using a scintillation cocktail (Microscint-0, Packard).

human 5-HT2CR [3] = target: T1, human 5-HT2CR; test: [125I]DOI competition binding assay
Procedure: as §1

[4] = test system: 5-HT2AR, 5-HT2BR, and 5-HT2CR; settings: cited from earlier work
[5] = 5-HT2CR pIC50 ± S.E.M., Table S2

T1 sequence (P28335 33-458): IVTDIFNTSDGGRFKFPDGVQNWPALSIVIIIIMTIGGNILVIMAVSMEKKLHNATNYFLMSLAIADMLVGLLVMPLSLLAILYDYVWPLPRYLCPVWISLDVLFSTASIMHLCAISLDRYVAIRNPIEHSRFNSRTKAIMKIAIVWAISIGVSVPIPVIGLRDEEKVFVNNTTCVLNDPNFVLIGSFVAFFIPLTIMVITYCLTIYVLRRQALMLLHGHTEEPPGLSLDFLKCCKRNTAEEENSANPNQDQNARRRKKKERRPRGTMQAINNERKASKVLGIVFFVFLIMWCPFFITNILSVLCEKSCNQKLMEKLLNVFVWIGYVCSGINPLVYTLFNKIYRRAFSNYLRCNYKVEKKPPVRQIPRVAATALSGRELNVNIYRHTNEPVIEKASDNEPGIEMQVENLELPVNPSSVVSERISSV
Sequence of human 5-HT2AR (P28223 whole entry): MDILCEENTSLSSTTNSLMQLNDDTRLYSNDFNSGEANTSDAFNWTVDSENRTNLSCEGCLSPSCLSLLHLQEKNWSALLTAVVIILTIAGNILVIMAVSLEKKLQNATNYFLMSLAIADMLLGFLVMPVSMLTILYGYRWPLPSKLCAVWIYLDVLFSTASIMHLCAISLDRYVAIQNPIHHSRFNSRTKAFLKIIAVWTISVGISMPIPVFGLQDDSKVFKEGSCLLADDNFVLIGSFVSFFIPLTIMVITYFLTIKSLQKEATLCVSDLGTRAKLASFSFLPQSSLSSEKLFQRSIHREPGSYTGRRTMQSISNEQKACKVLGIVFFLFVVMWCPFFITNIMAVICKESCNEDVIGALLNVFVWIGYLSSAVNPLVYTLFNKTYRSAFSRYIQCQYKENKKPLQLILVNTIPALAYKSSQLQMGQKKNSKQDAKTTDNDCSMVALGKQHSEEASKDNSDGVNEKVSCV
T2 sequence (P41595 whole entry): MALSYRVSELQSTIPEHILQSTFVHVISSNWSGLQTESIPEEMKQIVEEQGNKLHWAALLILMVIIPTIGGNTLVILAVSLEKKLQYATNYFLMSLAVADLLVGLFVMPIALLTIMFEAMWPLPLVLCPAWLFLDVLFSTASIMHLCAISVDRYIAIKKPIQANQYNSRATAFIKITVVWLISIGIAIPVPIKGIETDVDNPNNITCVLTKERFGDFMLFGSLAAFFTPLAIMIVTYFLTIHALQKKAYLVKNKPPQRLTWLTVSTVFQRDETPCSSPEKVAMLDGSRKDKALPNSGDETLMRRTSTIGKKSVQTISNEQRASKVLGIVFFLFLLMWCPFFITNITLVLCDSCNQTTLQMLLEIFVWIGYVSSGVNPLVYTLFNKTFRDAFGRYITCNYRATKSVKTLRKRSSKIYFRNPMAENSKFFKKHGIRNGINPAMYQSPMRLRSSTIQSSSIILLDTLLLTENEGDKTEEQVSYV

## CC(C)(C)NCC(O)COc1cccc2c1CC(O)C(O)C2 (centres unmarked) [Nadolol]
MDR1; read-out: Mean Recovery A to B
  recovery at […]: 93%
MDR1 (P-gp)
  Papp A→B at […]: 0.54 ×10⁻⁶ cm/s
MDR1-MDCKII
  Rank Papp: Low

## C[C@H]1O[C@@H](O[C@H]2[C@@H](O)C[C@H](O[C@H]3[C@@H](O)C[C@H](O[C@H]4CC[C@@]5(C)[C@H](CC[C@@H]6[C@@H]5C[C@@H](O)[C@]5(C)[C@@H](C7=CC(=O)OC7)CC[C@]65O)C4)O[C@@H]3C)O[C@@H]2C)C[C@H](O)[C@@H]1O [Digoxin]
MDR1; read-out: Mean Recovery B to A
  recovery at […]: 92%
MDR1 (P-gp)
  Papp A→B at […]: 0.22 ×10⁻⁶ cm/s
  Papp B→A at […]: 12.4 ×10⁻⁶ cm/s
MDR1-MDCKII
  Rank Papp: Low

## COc1cc(C2CCCNC2)c(OC)cc1I (centres unmarked) [Compound 9eu, 3-(4-Iodo-2,5-dimethoxyphenyl)piperidine]
Human 5-HT2CR [1]; Table 1
  EC50: > 50000 nM
Human 5-HT2AR
  5-HT2AR pEC50 ± S.E.M.: 7.43 ± 0.02
Human 5-HT2AR; Table 1
  pEC50: 7.43
Human 5-HT2CR [2]; [5]
  pIC50: 5.96

## COc1cc(C2CCCNC2)c(OC)cc1Cl (centres unmarked) [Compound 8eu, 3-(4-Chloro-2,5-dimethoxyphenyl)piperidine]
Human 5-HT2CR [1]; Table 1
  EC50: > 50000 nM
Human 5-HT2AR
  5-HT2AR pEC50 ± S.E.M.: 7.18 ± 0.05
Human 5-HT2AR; Table 1
  pEC50: 7.18
Human 5-HT2CR [2]; [5]
  pIC50: 6.06

## COc1cc(CC(C)N)c(OC)cc1I (racemic) [(±)-DOI, 1-(4-iodo-2,5-dimethoxyphenyl)propan-2-amine, reference compound]
Human 5-HT2BR
  pKi: 8.91
Human 5-HT2CR [3]
  pKi: 9.29

## COCCc1ccc(OCC(O)CNC(C)C)cc1 (centres unmarked) [Metoprolol]
MDR1; read-out: Mean Recovery A to B
  recovery at […]: 97%
MDR1 (P-gp)
  Papp A→B at […]: 24.2 ×10⁻⁶ cm/s
MDR1-MDCKII
  Rank Papp: High

## CN(C)CCc1c[nH]c2cccc(O)c12 [psilocin]
[4]
  agonist profile at 5-HT2AR, 5-HT2BR, and 5-HT2CR (in words): equipotent and equiefficacious agonist

## COc1cc(C2CCCNC2)c(OC)cc1Br (centres unmarked) [Compound 6eu, 3-(4-Bromo-2,5-dimethoxyphenyl)piperidine]
Human 5-HT2CR [1]
  agonist activity at 5-HT2CR (in words): devoid of measurable agonist activity
Human 5-HT2CR [1]; Table 1
  EC50: > 50000 nM
Human 5-HT2AR; Table 1
  EC50: 69 nM
Human 5-HT2CR [2]; 5-HT2CR IC50, Table 1
  pIC50: 6.19
Human 5-HT2CR [2]; [5]
  pIC50: 6.20

## COc1cc(C2CCCNC2)c(OC)cc1C#N (centres unmarked) [Compound 10eu, 2,5-Dimethoxy-4-(piperidin-3-yl)benzonitrile]
Human 5-HT2CR [1]; Table 1
  EC50: > 50000 nM
Human 5-HT2AR
  5-HT2AR pEC50 ± S.E.M.: 6.56 ± 0.13
Human 5-HT2AR; Table 1
  pEC50: 6.57
Human 5-HT2CR [2]; [5]
  pIC50: ~4.80

## COc1cc(C(F)(F)F)c(OC)cc1[C@@H]1CCCN(C)C1 [(S)-19, (S)-3-(2,5-Dimethoxy-4-(trifluoromethyl)phenyl)-1-methylpiperidine]
Human 5-HT2CR [1]; Table S2
  5-HT2CR pEC50 ± S.E.M.: 6.04 ± 0.03
Human 5-HT2AR; Table 2
  5-HT2AR Rmax (%): 19%
Human 5-HT2AR
  5-HT2AR Rmax ± S.E.M.: 19 ± 2%

## COc1cc(C2CCCNC2)c(OC)cc1C.Cl (centres unmarked) [Compound 12dis, 3-(2,5-Dimethoxy-4-methylphenyl)piperidine Hydrochloride]
Human 5-HT2CR [1]; Table S2
  5-HT2CR pEC50 ± S.E.M.: 5.92 ± 0.08
Human 5-HT2CR [1]; Table 1
  pEC50: 5.92
Human 5-HT2AR
  5-HT2AR pEC50 ± S.E.M.: 6.58 ± 0.06
Human 5-HT2AR; Table 1
  pEC50: 6.59

## CCN1CCC[C@H](c2cc(OC)c(C(F)(F)F)cc2OC)C1 [(R)-20, (R)-3-(2,5-Dimethoxy-4-(trifluoromethyl)phenyl)-1-ethylpiperidine]
Human 5-HT2CR [1]; Table 2
  EC50: > 10000 nM
Human 5-HT2AR; Table 2
  EC50: > 10000 nM

## CCOc1cc(C2CCCNC2)c(OC)cc1C(F)(F)F.Cl (centres unmarked) [Compound 25eu, 3-(5-Ethoxy-2-methoxy-4-(trifluoromethyl)phenyl)piperidine Hydrochloride]
Human 5-HT2CR [1]; Table S2
  5-HT2CR pEC50 ± S.E.M.: 6.54 ± 0.04
Human 5-HT2CR [1]; Table 2
  pEC50: 6.54
Human 5-HT2AR; Table 2
  5-HT2AR Rmax (%): 95%
  pEC50: 8.00
Human 5-HT2AR
  5-HT2AR pEC50 ± S.E.M.: 7.99 ± 0.11
  5-HT2AR Rmax ± S.E.M.: 95 ± 1%

## CCSc1cc(OC)c(C2CCCNC2)cc1OC.Cl (centres unmarked) [Compound 16dis, 3-(2,5-Dimethoxy-4-(ethylthio)phenyl)piperidine Hydrochloride]
Human 5-HT2CR [1]; Table S2
  5-HT2CR pEC50 ± S.E.M.: 6.11 ± 0.08
Human 5-HT2CR [1]; Table 1
  pEC50: 6.11
Human 5-HT2AR
  5-HT2AR pEC50 ± S.E.M.: 6.73 ± 0.10
Human 5-HT2AR; Table 1
  pEC50: 6.72

## CCc1cc(OC)c(C2CCCNC2)cc1OC.Cl (centres unmarked) [Compound 13dis, 3-(4-Ethyl-2,5-dimethoxyphenyl)piperidine Hydrochloride]
Human 5-HT2CR [1]; Table S2
  5-HT2CR pEC50 ± S.E.M.: 6.19 ± 0.12
Human 5-HT2CR [1]; Table 1
  pEC50: 6.19
Human 5-HT2AR
  5-HT2AR pEC50 ± S.E.M.: 6.94 ± 0.09
Human 5-HT2AR; Table 1
  pEC50: 6.96

## COc1cc(C2CCCNC2)ccc1C(F)(F)F.Cl (centres unmarked) [Compound 23dis, 3-(3-Methoxy-4-(trifluoromethyl)phenyl)piperidine Hydrochloride]
Human 5-HT2CR [1]; Table 2, % of the 5-HT Rmax
  5-HT2CR Rmax (%): 35%
Human 5-HT2CR [1]; Table S2
  5-HT2CR pEC50 ± S.E.M.: 5.85 ± 0.13
Human 5-HT2CR [1]; Table S2, % of the 5-HT Rmax on the same 96-well plate
  5-HT2CR Rmax ± S.E.M.: 35 ± 3%
Human 5-HT2CR [1]; Table 2
  pEC50: 5.85
Human 5-HT2AR; Table 2
  5-HT2AR Rmax (%): 65%
  pEC50: 5.60
Human 5-HT2AR
  5-HT2AR pEC50 ± S.E.M.: 5.61 ± 0.07
  5-HT2AR Rmax ± S.E.M.: 65 ± 3%

## CCSc1cc(OC)c(C2CCCNC2)cc1OC.Cl (centres unmarked) [Compound 16eu, 3-(2,5-Dimethoxy-4-(ethylthio)phenyl)piperidine Hydrochloride]
Human 5-HT2CR [1]; Table S2
  5-HT2CR pEC50 ± S.E.M.: 6.25 ± 0.08
Human 5-HT2CR [1]; Table 1
  pEC50: 6.24
Human 5-HT2AR
  5-HT2AR pEC50 ± S.E.M.: 7.42 ± 0.09
Human 5-HT2AR; Table 1
  pEC50: 7.42

## COc1cc(C(F)(F)F)ccc1C1CCCNC1.Cl (centres unmarked) [Compound 22dis, 3-(2-Methoxy-4-(trifluoromethyl)phenyl)piperidine Hydrochloride]
Human 5-HT2CR [1]; Table S2
  5-HT2CR pEC50 ± S.E.M.: 5.85 ± 0.05
Human 5-HT2CR [1]; Table 2
  pEC50: 5.85
Human 5-HT2AR; Table 2
  5-HT2AR Rmax (%): 80%
  pEC50: 6.18
Human 5-HT2AR
  5-HT2AR pEC50 ± S.E.M.: 6.18 ± 0.07
  5-HT2AR Rmax ± S.E.M.: 80 ± 5%
